Laboratory results: paper PMC7069776 (Journal of medicinal chemistry, 2019)

What was measured:
Hsp90 = Hsp90 (Candida albicans, UniProt P46598); experiment: biochemical
[1] = test system: C. albicans clinical isolate (CaCi2); experiment: Antifungal sensitivity testing; type: cell-based; conditions: CaCi2, cultures spotted on compound-free YPD agar, 30 °C, 24 h
C. albicans Hsp90 NBD = conditions: cited from earlier work
[2] = test system: C. neoformans (Strain H99); conditions: H99, RPMI 1640, 37 °C (Fig. 4A)

Chain of Hsp90 (P46598 whole entry): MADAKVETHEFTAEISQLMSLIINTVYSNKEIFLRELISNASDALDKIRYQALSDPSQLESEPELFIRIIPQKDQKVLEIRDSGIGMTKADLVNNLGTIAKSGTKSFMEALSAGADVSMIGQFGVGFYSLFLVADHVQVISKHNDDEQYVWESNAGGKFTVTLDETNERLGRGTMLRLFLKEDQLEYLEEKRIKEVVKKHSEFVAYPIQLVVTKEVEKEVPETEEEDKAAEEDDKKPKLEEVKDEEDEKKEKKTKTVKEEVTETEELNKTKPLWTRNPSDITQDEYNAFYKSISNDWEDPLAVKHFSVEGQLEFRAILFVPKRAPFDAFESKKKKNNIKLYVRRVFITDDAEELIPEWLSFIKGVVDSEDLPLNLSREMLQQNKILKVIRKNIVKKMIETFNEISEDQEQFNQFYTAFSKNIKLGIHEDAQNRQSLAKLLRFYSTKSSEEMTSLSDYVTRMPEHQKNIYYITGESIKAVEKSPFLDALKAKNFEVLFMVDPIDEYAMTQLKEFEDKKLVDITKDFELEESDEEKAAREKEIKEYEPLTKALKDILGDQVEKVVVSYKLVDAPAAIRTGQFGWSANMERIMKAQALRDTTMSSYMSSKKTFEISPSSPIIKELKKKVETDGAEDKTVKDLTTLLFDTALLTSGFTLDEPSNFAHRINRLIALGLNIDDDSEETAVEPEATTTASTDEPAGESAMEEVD

EC50 (Hsp90) [µM]	SMILES	fungicidal activity in combination with fluconazole [1]	also measured
> 6	COc1ccc(Cn2nc(C)cc2Nc2cc(O)cc(O)c2C(=O)N(C)Cc2ccccc2)cc1 [Compound 37, N-Benzyl-2,4-dihydroxy-6-((1-((4-methoxyphenyl)methyl)-3-methyl-1H-pyrazol-5-yl)amino)-N-methylbenzamide]		
> 9	COc1ccc(Cn2nc(-c3ccccc3)cc2Nc2cc(O)cc(O)c2C(=O)N(C)CC2CC2)cc1 [Compound 31, N-(Cyclopropylmethyl)-2,4-dihydroxy-6-((1-((4-methoxyphenyl)methyl)-3-phenyl-1H-pyrazol-5-yl)amino)-N-methylbenzamide]		
	Cn1nc(-c2ccc(OC(F)(F)F)cc2)cc1Nc1cc(O)cc(O)c1C(=O)N1Cc2ccccc2C1 [Compound 130, 4-(2,3-Dihydro-1H-isoindole-2-carbonyl)-5-((1-methyl-3-(4-(trifluoromethoxy)phenyl)-1H-pyrazol-5-yl)amino)benzene-1,3-diol]	fungicidal	
	COc1ccc(Cn2nc(-c3ccccc3)cc2Nc2cc(O)cc(O)c2C(=O)N2Cc3ccccc3C2)cc1 [Compound 21, 4-(2,3-dihydro-1H-isoindole-2-carbonyl)-5-((1-((4-methoxyphenyl)methyl)-3-phenyl-1H-pyrazol-5-yl)amino)benzene-1,3-diol]	fungicidal activity	
	Cc1cc(Nc2cc(O)cc(O)c2C(=O)N2Cc3ccccc3C2)n(Cc2ccccc2Cl)n1 [Compound 89, 5-((1-((2-Chlorophenyl)methyl)-3-methyl-1H-pyrazol-5-yl)amino)-4-(2,3-dihydro-1H-isoindole-2-carbonyl)benzene-1,3-diol]	fungicidal activity	
> 9	COc1ccc(Cn2nc(C)cc2Nc2cc(O)cc(O)c2C(=O)N(C)CC2CC2)cc1 [Compound 30, N-(Cyclopropylmethyl)-2,4-dihydroxy-6-((1-((4-methoxyphenyl)methyl)-3-methyl-1H-pyrazol-5-yl)amino)-N-methylbenzamide]		
	COc1ccc(Cn2ncc(C)c2Nc2cc(O)cc(O)c2C(=O)N2Cc3ccccc3C2)cc1 [Compound 41, 4-(2,3-Dihydro-1H-isoindole-2-carbonyl)-5-((1-((4-methoxyphenyl)methyl)-4-methyl-1H-pyrazol-5-yl)amino)benzene-1,3-diol]	fungicidal activity	
	COc1ccc(CO\N=C2/C=C/C=C\[C@H]3O[C@@H]3C[C@@H](C)OC(=O)c3c(O)cc(O)cc3C2)cc1 [CMLD013075]		binding selectivity for the C. albicans Hsp90 NBD compared to the human ortholog (C. albicans Hsp90 NBD): > 25 fold
	Cc1ccccc1-c1cc(Nc2cc(O)cc(O)c2C(=O)N2Cc3ccccc3C2)n(C)n1 [Compound 106, 4-(2,3-Dihydro-1H-isoindole-2-carbonyl)-5-((1-methyl-3-(2-methylphenyl)-1H-pyrazol-5-yl)amino)benzene-1,3-diol]		concentration inhibiting growth of C. neoformans [2]: below 10 μM
> 10	CCN(CC)C(=O)c1c(O)cc(O)cc1Nc1cc(-c2ccccc2)nn1Cc1ccc(OC)cc1 [Compound 39, N,N-Diethyl-2,4-dihydroxy-6-((1-((4-methoxyphenyl)methyl)-3-phenyl-1H-pyrazol-5-yl)amino)benzamide]		
